The MRT last is a mean duration of stay, worked out from the concentration-time curve. One may read the Cmax as the maximum level reached in the sampled fluid or tissue. A word on the IC50: it is the concentration that gives 50% inhibition. A high value points to a need for much substance. As usually defined, the bioavailability is the share of a dose that reaches the circulation, judged against a reference dose that is usually intravenous.

Molecules are shown by their SMILES.

Data set [1] relates to ALK tyrosine kinase receptor (Homo sapiens), Q9UM73 [G1269S]. The data set is described as follows: Inhibition of ALK G1269S mutant (unknown origin) assessed as residual activity at 1 uM relative to control.
Chain of ALK tyrosine kinase receptor (Homo sapiens), Q9UM73 [G1269S] (Q9UM73 whole entry G1269S): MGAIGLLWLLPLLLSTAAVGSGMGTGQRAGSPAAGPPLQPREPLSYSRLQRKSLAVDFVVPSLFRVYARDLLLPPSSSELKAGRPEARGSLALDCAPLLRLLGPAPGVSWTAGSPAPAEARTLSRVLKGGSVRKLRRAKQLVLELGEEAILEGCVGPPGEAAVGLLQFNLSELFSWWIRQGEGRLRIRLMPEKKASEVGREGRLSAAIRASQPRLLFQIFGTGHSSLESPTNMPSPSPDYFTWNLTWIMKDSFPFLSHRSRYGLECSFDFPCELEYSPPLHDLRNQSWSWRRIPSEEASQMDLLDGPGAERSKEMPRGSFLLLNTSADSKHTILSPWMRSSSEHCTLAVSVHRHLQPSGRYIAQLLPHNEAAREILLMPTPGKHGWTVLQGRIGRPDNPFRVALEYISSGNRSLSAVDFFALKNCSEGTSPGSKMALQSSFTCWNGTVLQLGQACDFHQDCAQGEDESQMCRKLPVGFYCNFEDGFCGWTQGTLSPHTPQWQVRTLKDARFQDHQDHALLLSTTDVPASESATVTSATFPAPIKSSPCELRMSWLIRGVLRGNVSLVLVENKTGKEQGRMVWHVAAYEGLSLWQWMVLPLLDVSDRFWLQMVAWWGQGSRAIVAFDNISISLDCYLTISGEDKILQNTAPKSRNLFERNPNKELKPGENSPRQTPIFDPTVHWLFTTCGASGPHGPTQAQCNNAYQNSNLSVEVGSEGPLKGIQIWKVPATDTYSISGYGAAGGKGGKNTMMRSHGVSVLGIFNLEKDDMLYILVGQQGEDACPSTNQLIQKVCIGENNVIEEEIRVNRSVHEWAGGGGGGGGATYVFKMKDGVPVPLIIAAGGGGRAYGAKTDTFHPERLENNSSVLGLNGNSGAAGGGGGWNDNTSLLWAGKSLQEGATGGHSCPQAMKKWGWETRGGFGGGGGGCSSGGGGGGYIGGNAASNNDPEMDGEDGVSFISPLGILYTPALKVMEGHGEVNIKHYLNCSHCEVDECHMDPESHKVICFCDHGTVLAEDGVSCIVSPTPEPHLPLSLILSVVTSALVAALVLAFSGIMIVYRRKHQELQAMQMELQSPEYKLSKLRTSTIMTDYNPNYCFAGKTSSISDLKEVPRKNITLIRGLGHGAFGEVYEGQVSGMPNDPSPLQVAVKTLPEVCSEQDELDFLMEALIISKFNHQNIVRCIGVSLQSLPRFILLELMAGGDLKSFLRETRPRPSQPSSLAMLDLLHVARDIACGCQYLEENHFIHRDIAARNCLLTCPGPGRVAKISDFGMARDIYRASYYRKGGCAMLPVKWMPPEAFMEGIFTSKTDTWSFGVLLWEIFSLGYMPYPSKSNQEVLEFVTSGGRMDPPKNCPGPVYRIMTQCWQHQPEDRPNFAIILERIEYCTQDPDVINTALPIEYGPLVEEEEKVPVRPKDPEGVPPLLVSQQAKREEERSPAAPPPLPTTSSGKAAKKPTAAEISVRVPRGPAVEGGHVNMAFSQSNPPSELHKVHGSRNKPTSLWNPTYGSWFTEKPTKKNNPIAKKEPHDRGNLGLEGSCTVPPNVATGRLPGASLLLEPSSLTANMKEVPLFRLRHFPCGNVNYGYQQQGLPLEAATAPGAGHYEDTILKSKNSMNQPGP
For data set [2], the target named is Leukocyte tyrosine kinase receptor (Homo sapiens) (UniProt P29376). Nature of the data set: Inhibition of TYK1 (unknown origin) assessed as residual activity at 1 uM relative to control.
Chain of Leukocyte tyrosine kinase receptor (Homo sapiens) (P29376 whole entry): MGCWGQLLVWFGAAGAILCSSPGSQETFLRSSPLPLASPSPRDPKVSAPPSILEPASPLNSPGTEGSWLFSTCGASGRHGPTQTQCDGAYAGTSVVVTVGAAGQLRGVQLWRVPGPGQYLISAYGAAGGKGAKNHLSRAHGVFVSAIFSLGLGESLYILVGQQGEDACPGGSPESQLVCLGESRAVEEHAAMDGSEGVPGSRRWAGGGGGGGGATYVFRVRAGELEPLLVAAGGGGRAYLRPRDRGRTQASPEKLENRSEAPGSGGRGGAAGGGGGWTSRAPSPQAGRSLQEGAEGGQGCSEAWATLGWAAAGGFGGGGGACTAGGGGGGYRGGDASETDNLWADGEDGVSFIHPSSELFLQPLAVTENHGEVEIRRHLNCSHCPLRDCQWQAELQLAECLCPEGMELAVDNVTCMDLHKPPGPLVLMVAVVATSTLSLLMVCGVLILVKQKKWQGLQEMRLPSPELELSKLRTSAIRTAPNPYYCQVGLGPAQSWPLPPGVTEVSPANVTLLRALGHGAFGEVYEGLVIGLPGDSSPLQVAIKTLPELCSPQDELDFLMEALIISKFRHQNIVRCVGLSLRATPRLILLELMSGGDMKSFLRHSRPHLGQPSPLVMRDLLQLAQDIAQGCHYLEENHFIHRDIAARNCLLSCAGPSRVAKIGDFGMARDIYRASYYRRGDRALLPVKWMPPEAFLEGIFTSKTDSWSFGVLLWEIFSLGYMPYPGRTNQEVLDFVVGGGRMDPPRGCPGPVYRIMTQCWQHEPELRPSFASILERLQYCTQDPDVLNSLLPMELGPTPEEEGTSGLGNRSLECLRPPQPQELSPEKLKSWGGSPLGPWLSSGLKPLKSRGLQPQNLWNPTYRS
Data set [3] relates to ALK tyrosine kinase receptor (Homo sapiens), Q9UM73 [R1275Q]. The data set is described as follows: Inhibition of ALK R1275Q mutant (unknown origin) assessed as residual activity at 1 uM relative to control.
Chain of ALK tyrosine kinase receptor (Homo sapiens), Q9UM73 [R1275Q] (Q9UM73 whole entry R1275Q): as the sequence (Q9UM73 whole entry G1269S) above, with S1269G, R1275Q counted along it
The nature of data set [4]: MRT (0 to t) in Sprague-Dawley rat at 2 mg/kg, iv measured upto 24 hrs by LC-MS/MS analysis. It counts as ADME, organism-based. The settings on record: in vivo.
The target in data set [5] is Activated CDC42 kinase 1 (Homo sapiens) (UniProt Q07912). Nature of the data set: Inhibition of ACK1 (unknown origin) assessed as residual activity at 1 uM relative to control.
Data set [6] is described as follows: Cmax in Sprague-Dawley rat at 10 mg/kg, po measured upto 24 hrs by LC-MS/MS analysis. Conditions: in vivo. It counts as ADME, organism-based. Details: time < 24 hrs, dose 10 mg/kg, route po.
In data set [7] the target is ALK-TFG (Homo sapiens) (UniProt Q9UM73+Q92734). The data set is described as follows: Inhibition of ALK-TFG (unknown origin) assessed as residual activity at 1 uM relative to control. Type of data set: protein assay.
In data set [8] the target is Non-receptor tyrosine-protein kinase TNK1 (Homo sapiens) (UniProt Q13470). The data set is described as follows: Inhibition of TNK1 (unknown origin) assessed as residual activity at 1 uM relative to control.
Chain of Non-receptor tyrosine-protein kinase TNK1 (Homo sapiens) (Q13470 whole entry): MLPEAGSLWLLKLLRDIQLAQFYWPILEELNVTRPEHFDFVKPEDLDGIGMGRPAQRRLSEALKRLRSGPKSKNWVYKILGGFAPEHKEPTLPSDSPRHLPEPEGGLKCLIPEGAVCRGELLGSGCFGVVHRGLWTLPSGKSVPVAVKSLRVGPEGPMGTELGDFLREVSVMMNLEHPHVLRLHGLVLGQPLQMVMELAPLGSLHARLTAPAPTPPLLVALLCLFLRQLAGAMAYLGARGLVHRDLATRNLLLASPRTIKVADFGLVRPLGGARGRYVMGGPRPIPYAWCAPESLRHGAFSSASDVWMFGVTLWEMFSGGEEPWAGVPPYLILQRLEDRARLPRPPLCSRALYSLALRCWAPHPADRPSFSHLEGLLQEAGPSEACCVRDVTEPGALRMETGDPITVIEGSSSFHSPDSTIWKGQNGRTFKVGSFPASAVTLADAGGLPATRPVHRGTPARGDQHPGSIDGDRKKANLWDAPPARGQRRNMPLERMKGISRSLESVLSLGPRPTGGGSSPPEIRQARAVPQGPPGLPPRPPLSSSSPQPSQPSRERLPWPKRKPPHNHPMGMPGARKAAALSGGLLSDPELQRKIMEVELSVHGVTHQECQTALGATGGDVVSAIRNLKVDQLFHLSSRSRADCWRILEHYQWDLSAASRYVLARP
Data set [9] deals with MDA-MB-468. The data set is described as follows: cells. It counts as functional, cell-based. The settings on record: Homo sapiens, MDA-MB-468, 72 h.
Description: Antiproliferative activity against human MDA-MB-468 cells assessed inhibition of cell growth incubated for 72 hrs by CCK-8 assay
A short description of data set [10]: Metabolic stability in human liver microsome assessed as intrinsic clearance preincubated for 10 mins followed by NADPH addition and measured upto 60 mins by LC-MS/MS analysis. Type of data set: ADME. The settings on record: liver microsomes, time < 70 min, read-out: CLH. In general terms: Liver microsomes are a subcellular fraction often used to study metabolism.

Data set [11] can be described thus: Oral bioavailability in Sprague-Dawley rat at 10 mg/kg measured upto 24 hrs by LC-MS/MS analysis. The settings on record: in vivo. Type of data set: ADME, organism-based.
For data set [12], the target named is Tyrosine-protein kinase Fer (Homo sapiens) (UniProt P16591). Nature of the data set: Inhibition of FER (unknown origin) assessed as residual activity at 1 uM relative to control.
In data set [13] the test system is ALK tyrosine kinase receptor (Homo sapiens), Q9UM73 [G1202R]. The data set is described as follows: Inhibition of ALK G1202R mutant (unknown origin) assessed as residual activity at 1 uM relative to control.
Chain of ALK tyrosine kinase receptor (Homo sapiens), Q9UM73 [G1202R] (Q9UM73 whole entry G1202R): as the sequence (Q9UM73 whole entry G1269S) above, with G1202R, S1269G counted along it
Data set [14] concerns ALK tyrosine kinase receptor (Homo sapiens), Q9UM73 [UNDEFINED MUTATION]. The data set is described as follows: Inhibition of ALK T1151/L1152 mutant (unknown origin) assessed as residual activity at 1 uM relative to control.
Chain of ALK tyrosine kinase receptor (Homo sapiens), Q9UM73 [UNDEFINED MUTATION] (Q9UM73 whole entry, looked up, change not shown, the tested form may be a part): as the sequence (Q9UM73 whole entry G1269S) above, with S1269G counted along it
For data set [15], the target named is Epithelial discoidin domain-containing receptor 1 (Homo sapiens) (UniProt Q08345). The data set is described as follows: Inhibition of DDR1 (unknown origin) assessed as residual activity at 1 uM relative to control.
The target in data set [16] is ROS1-GOPC (Homo sapiens) (UniProt P08922+Q9HD26). Nature of the data set: Inhibition of ROS1-GOPC (unknown origin) assessed as residual activity at 1 uM relative to control. Type of data set: protein assay.
Data set [17] relates to Fibroblast growth factor receptor 2 (Homo sapiens), P21802 [K526E]. The data set is described as follows: Inhibition of FGFR2 K526E mutant (unknown origin) assessed as residual activity at 1 uM relative to control.
Chain of Fibroblast growth factor receptor 2 (Homo sapiens), P21802 [K526E] (P21802 whole entry K526E): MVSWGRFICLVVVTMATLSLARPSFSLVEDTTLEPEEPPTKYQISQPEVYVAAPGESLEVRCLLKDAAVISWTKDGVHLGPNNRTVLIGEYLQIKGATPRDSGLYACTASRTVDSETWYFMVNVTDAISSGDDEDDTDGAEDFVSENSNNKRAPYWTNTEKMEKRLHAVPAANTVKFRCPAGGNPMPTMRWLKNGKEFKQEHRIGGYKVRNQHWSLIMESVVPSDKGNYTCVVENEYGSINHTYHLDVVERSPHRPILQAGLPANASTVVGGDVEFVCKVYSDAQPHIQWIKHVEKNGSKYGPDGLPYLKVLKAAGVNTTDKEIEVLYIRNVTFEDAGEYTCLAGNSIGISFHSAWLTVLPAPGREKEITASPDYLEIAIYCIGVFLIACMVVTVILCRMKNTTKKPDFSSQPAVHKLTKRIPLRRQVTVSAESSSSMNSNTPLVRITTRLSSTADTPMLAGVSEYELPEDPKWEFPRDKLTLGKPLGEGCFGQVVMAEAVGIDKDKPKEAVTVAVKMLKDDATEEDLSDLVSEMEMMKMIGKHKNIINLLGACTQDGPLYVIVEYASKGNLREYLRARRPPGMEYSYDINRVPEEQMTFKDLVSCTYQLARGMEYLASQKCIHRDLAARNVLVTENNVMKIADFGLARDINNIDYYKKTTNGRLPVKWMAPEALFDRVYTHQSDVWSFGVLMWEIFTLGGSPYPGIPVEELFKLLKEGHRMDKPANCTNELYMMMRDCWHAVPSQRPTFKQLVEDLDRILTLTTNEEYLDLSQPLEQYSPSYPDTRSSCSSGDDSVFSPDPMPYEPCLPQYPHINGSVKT
For data set [18], the target named is Leucine-rich repeat serine/threonine-protein kinase 2 (Homo sapiens) (UniProt Q5S007). The data set is described as follows: Inhibition of LRRK2 (unknown origin) assessed as residual activity at 1 uM relative to control.
Data set [19] deals with Tyrosine-protein kinase Fes/Fps (Homo sapiens) (UniProt P07332). Nature of the data set: Inhibition of FES (unknown origin) assessed as residual activity at 1 uM relative to control.
Chain of Tyrosine-protein kinase Fes/Fps (Homo sapiens) (P07332 whole entry): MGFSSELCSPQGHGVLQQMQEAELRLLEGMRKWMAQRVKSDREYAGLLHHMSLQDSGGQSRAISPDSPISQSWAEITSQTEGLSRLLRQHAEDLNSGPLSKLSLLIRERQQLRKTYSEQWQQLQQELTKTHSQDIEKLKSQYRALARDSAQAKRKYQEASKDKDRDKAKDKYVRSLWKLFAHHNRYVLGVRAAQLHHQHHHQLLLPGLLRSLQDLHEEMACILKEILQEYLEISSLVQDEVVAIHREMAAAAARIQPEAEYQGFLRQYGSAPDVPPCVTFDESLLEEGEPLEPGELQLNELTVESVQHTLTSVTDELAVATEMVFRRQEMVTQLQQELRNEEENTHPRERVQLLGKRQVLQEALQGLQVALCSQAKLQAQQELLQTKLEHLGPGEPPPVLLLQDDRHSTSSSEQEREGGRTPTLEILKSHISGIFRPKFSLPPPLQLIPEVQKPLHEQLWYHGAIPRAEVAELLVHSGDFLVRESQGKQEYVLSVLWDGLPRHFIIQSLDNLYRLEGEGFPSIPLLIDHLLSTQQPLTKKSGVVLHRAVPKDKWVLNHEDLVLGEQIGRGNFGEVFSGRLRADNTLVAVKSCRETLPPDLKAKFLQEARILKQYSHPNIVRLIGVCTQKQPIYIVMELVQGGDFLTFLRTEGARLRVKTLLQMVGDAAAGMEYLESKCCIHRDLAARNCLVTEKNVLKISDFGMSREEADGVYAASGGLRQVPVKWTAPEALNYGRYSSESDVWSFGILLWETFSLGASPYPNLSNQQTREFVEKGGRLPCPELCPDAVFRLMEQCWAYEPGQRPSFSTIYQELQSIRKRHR

Take `CCc1cccc(CC)c1N1CCn2cc(-c3nc(Nc4ccc(N5CCN(C(C)=O)CC5)cc4OC)nc4[nH]ncc34)cc2C1=O`: the Activity in [1], in data set [2], in data set [3], in data set [5], in [7] and in data set [8] was less than 10% each time. Moreover, the Activity in data set [12], in [13], in [14], in data set [15], in data set [16] and in data set [17] was less than 10% each time. Further, the Activity in [18] and in data set [19] was less than 10% in each case. This compound also registered an MRT last at 24 h in [4] of 20.4 min. Further, the maximum concentration (Cmax) in data set [6] came to 160 ng/mL. Inhibition in [9] was half-maximal at 221 nM (IC50). Besides, the CLint scaled in data set [10] turned out to be 33.5 mL/min/kg. The bioavailability in data set [11] worked out at 3.95%.

Values taken from ChEMBL document CHEMBL5360570, “Discovery of pyrazolo[3,4-b]pyridine derivatives as novel and potent Mps1 inhibitors for the treatment of cancer” (Eur J Med Chem, 2023).
